Read-outs that look alike come from different tables or passages of the source.
Key:
[1] = molecular target: GSK3α (GST-full length GSK3α) (Homo sapiens (Human), UniProt P49840); experiment: GSK3α TR-FRET kinase assay; assay type: biochemical
How it was run: (§1)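 In this time-resolved FRET format, kinase reactions contained 200 nM biotinylated, S645-phosphorylated glycogen synthase 631-650 peptide and either isoform-specific ATP (2 μM GSK3b, 4 μM GSK3α) or 1 mM ATP. They were quenched with EDTA after 100 min at ambient temperature. Inhibition curves gave IC50 values.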

[2] = molecular target: GSK3b (GST-full length GSK3b) (Homo sapiens (Human), UniProt P49841); experiment: GSK3b TR-FRET kinase assay; assay type: biochemical
How it was run: as §1

[3] = 1 nM GSK3α, 4 μM ATP, 30 minute preincubation, Table 16, read-out: GSK3-A TR-FRET BIOCHEMICAL (TR-FRET)
[4] = 1 nM GSK3b, 2 μM ATP, 30 minute preincubation, Table 16, read-out: GSK3-B TR-FRET BIOCHEMICAL (TR-FRET)
[5] = 1 nM GSK3α, 4 μM ATP, 30 minute preincubation, Table 16, read-out: GSK3-A TR-FRET BIOCHEMICAL (TR-FRET), IC50
[6] = GSK3-A (TR-FRET 1 mM ATP), GMean, IC50, 1 mM ATP, geometric mean
[7] = 1 nM GSK3b, 2 μM ATP, 30 minute preincubation, Table 16, read-out: GSK3-B TR-FRET BIOCHEMICAL (TR-FRET), IC50
[8] = GSK3-B (TR-FRET 1 mM ATP), GMean, IC50, 1 mM ATP, geometric mean
[9] = read-out: GSK3-A (TR-FRET 1 mM ATP), GMean, IC50, 1 mM ATP, geometric mean
[10] = read-out: GSK3-B (TR-FRET 1 mM ATP), GMean, IC50, 1 mM ATP, geometric mean
[11] = 1 nM GSK3α, 4 μM ATP, 30 minute preincubation, read-out: GSK3-A TR-FRET BIOCHEMICAL (TR-FRET), IC50
[12] = 1 nM GSK3b, 2 μM ATP, 30 minute preincubation, read-out: GSK3-B TR-FRET BIOCHEMICAL (TR-FRET), IC50

Sequence of GSK3b (GST-full length GSK3b) (P49841 whole entry): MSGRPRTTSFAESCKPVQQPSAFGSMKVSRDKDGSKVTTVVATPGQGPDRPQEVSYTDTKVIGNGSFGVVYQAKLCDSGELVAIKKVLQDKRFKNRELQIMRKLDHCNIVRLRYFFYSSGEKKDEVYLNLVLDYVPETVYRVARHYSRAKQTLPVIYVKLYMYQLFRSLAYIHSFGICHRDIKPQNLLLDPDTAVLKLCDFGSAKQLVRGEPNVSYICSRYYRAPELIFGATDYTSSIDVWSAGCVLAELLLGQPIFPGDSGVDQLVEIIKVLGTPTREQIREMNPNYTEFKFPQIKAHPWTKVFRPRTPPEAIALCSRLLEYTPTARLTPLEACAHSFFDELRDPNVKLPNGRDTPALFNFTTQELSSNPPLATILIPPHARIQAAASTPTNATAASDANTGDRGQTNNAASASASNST
Sequence of GSK3α (GST-full length GSK3α) (P49840 whole entry, canonical isoform): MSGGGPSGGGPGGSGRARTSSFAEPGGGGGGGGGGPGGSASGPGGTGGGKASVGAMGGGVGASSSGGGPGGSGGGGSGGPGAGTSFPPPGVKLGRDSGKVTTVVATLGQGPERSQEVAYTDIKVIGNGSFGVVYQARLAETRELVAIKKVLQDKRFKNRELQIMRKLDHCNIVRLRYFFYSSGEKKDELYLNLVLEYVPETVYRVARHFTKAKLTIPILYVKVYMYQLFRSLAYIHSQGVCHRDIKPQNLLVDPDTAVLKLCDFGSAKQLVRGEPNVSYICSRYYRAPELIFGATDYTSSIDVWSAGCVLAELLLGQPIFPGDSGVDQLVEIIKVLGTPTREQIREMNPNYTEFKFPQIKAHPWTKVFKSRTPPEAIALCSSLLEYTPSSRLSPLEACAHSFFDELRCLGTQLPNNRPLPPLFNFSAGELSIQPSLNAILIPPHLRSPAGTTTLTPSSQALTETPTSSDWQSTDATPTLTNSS

IC50 [1, 3] | IC50 [2, 4] | IC50 [1, 5] | IC50 [2, 7] | Structure (SMILES) | further results
 |  | 100 to 1000 nM | 100 to 1000 nM | CCC1(c2cccc(N(C)c3ccc(OC)nc3)c2)C2=C(CC(C)(C)CC2=O)Nc2n[nH]cc21 (stereo not shown) [Compound 913252] | 
 |  | ≤ 100 nM | ≤ 100 nM | CCC1(c2cccc(NS(C)(=O)=O)c2)C2=C(CC(C)(C)CC2=O)Nc2n[nH]cc21 (stereo not shown) [Compound 913253] | 
 |  | ≤ 100 nM | ≤ 100 nM | CCC1(c2cccc(N(C)c3ccnc(C(F)(F)F)c3)c2)C2=C(CC(C)(C)CC2=O)Nc2n[nH]cc21 (stereo not shown) [Compound 913254] | 
 |  | 1000 to 5000 nM | > 5000 nM | CCC1(c2cccc(N(C)c3cc(C)nc(C)c3)c2)C2=C(CC(C)(C)CC2=O)Nc2n[nH]cc21 (stereo not shown) [Compound 913256] | 
 |  | ≤ 100 nM | ≤ 100 nM | CCC1(c2cccc(S(=O)(=O)Cc3ccccc3)c2)C2=C(CC(C)(C)CC2=O)Nc2n[nH]cc21 (stereo not shown) [Compound 913258] | 
≤ 100 nM | ≤ 100 nM |  |  | CC1(C)CC(=O)C2=C(C1)Nc1n[nH]cc1C21CN(S(=O)(=O)C2CC2)C1 [Compound 913259] | 
≤ 100 nM | ≤ 100 nM |  |  | Cn1ccc(S(=O)(=O)N2CC3(C2)C2=C(CC(C)(C)CC2=O)Nc2n[nH]cc23)n1 [Compound 913260] | 
≤ 100 nM | ≤ 100 nM |  |  | COc1ccccc1S(=O)(=O)N1CC2(C1)C1=C(CC(C)(C)CC1=O)Nc1n[nH]cc12 [Compound 913261] | 
≤ 100 nM | ≤ 100 nM |  |  | CC1(C)CC(=O)C2=C(C1)Nc1n[nH]cc1C21CN(S(=O)(=O)c2ccccn2)C1 [Compound 913262] | 
100 to 1000 nM | 100 to 1000 nM |  |  | CC1(C)CC(=O)C2=C(C1)Nc1n[nH]cc1C21CN(S(=O)(=O)c2ccccc2F)C1 [Compound 913263] | 
≤ 100 nM | ≤ 100 nM |  |  | CN1CC2(C1)C1=C(CC(C)(C)CC1=O)Nc1n[nH]cc12 [Compound 913264] | 
 |  | > 5000 nM | > 5000 nM | CC1(C)CC(=O)C2=C(C1)Nc1n[nH]cc1C21CN(S(=O)(=O)c2cccnc2)C1 [Compound 913265] | 
 |  | ≤ 100 nM | ≤ 100 nM | CCC1(c2cccc(N(c3cccnc3)C3CC3)c2)C2=C(CC(C)(C)CC2=O)Nc2n[nH]cc21 (stereo not shown) [Compound 913274] | 
 |  | ≤ 100 nM | ≤ 100 nM | CCC1(c2cccc(N(C)C(=O)c3cnn(C)c3)c2)C2=C(CC(C)(C)CC2=O)Nc2n[nH]cc21 (stereo not shown) [Compound 913311] | IC50 [1, 9]: > 5000 nM; IC50 [2, 10]: > 5000 nM
 |  | ≤ 100 nM | 100 to 1000 nM | CCC1(c2cccc(Nc3ncccn3)c2)C2=C(CC(C)(C)CC2=O)Nc2n[nH]cc21 (stereo not shown) [Compound 913334] | 
 |  | ≤ 100 nM | ≤ 100 nM | CCC1(c2cccc(-c3ccnc(C)c3C)c2)C2=C(CC(C)(C)CC2=O)Nc2n[nH]cc21 (stereo not shown) [Compound 913347] | 
 |  | ≤ 100 nM | 100 to 1000 nM | CCC1(c2cccc(-c3ccnc(C(F)(F)F)c3)c2)C2=C(CC(C)(C)CC2=O)Nc2n[nH]cc21 (stereo not shown) [Compound 913348] | 
 |  | ≤ 100 nM | ≤ 100 nM | CCC1(c2cccc(-c3ccncc3F)c2)C2=C(CC(C)(C)CC2=O)Nc2n[nH]cc21 (stereo not shown) [Compound 913349] | 
 |  | 100 to 1000 nM | ≤ 100 nM | CCC1(c2cccc(-c3ccnc(C(F)(F)F)c3)c2)C2=C(CC(C)(C)CC2=O)Nc2n[nH]cc21 (stereo not shown) [Compound 913350] | IC50 [1, 9]: ≤ 100 nM; IC50 [2, 10]: 100 to 1000 nM
 |  | ≤ 100 nM | ≤ 100 nM | CCC1(c2cccc(-c3ccncc3C)c2)C2=C(CC(C)(C)CC2=O)Nc2n[nH]cc21 (stereo not shown) [Compound 913351] | 
 |  | ≤ 100 nM | ≤ 100 nM | CCC1(c2cccc(-c3ccnc(O)c3)c2)C2=C(CC(C)(C)CC2=O)Nc2n[nH]cc21 (stereo not shown) [Compound 913352] | 

The remaining lines, values behind:

Structure (SMILES) | IC50 [1, 3] | IC50 [2, 4] | IC50 [1, 5] | IC50 [2, 7] | further results
CC1(C)CC(=O)C2=C(C1)Nc1n[nH]cc1C21CCCSCC1 (stereo not shown) [Compound 913126] | ≤ 100 nM | 100 to 1000 nM |  |  | 
CC1(C)CC(=O)C2=C(C1)Nc1n[nH]cc1C21CCN(S(=O)(=O)C2CCOCC2)CC1 [Compound 913127] |  |  | ≤ 100 nM | ≤ 100 nM | IC50 [1, 6]: ≤ 100 nM; IC50 [2, 8]: 100 to 1000 nM
CC1(C)CC(=O)C2=C(C1)Nc1n[nH]cc1C21CCN(S(=O)(=O)C2CCCCC2)CC1 [Compound 913128] |  |  | ≤ 100 nM | ≤ 100 nM | IC50 [1, 6]: ≤ 100 nM; IC50 [2, 8]: 100 to 1000 nM
CC(C)S(=O)(=O)N1CCC2(CC1)C1=C(CC(C)(C)CC1=O)Nc1n[nH]cc12 [Compound 913129] |  |  | ≤ 100 nM | ≤ 100 nM | IC50 [1, 6]: ≤ 100 nM; IC50 [2, 8]: 100 to 1000 nM
CCC1(c2cccc(S(=O)(=O)C(C)C)c2)C2=C(CC(C)(C)CC2=O)Nc2n[nH]cc21 (stereo not shown) [Compound 913134] |  |  | 100 to 1000 nM | 1000 to 5000 nM | 
CCC1(c2cccc(S(=O)(=O)C(C)C)c2)C2=C(CC(C)(C)CC2=O)Nc2n[nH]cc21 (stereo not shown) [Compound 913135] |  |  | ≤ 100 nM | ≤ 100 nM | IC50 [1, 9]: ≤ 100 nM; IC50 [2, 10]: 100 to 1000 nM
Cc1cccc2c1CC[C@]21C2=C(CC(C)(C)CC2=O)Nc2n[nH]cc21 [Compound 913136] |  |  | ≤ 100 nM | 100 to 1000 nM | 
Cc1cccc2c1CC[C@@]21C2=C(CC(C)(C)CC2=O)Nc2n[nH]cc21 [Compound 913137] |  |  | > 5000 nM | > 5000 nM | 
CC1(C)CC(=O)C2=C(C1)Nc1n[nH]cc1[C@]21C[C@@]2(CCN(CC(F)F)C2)C1 [Compound 913139] |  |  |  |  | IC50 [1, 11]: 100 to 1000 nM; IC50 [2, 12]: 100 to 1000 nM
CC[C@@]1(c2cccc(N3CCC3(C)C)c2)C2=C(CC(C)(C)CC2=O)Nc2n[nH]cc21 [Compound 913140] |  |  | ≤ 100 nM | 100 to 1000 nM | 
CCC1(c2cccc(N3CCC3(C)C)c2)C2=C(CC(C)(C)CC2=O)Nc2n[nH]cc21 (stereo not shown) [Compound 913141] |  |  | 100 to 1000 nM | 1000 to 5000 nM | 
CCC1(c2cccc(C(F)(F)F)c2)C2=C(CNC2=O)Nc2n[nH]cc21 (stereo not shown) [Compound 913156] | 100 to 1000 nM | > 5000 nM |  |  | 
CCC1(c2cccc(C(C)(C)F)c2)C2=C(CCN(C)C2=O)Nc2n[nH]cc21 (stereo not shown) [Compound 913178] |  |  |  |  | IC50 [1, 11]: 100 to 1000 nM; IC50 [2, 12]: 1000 to 5000 nM
CC1(C)CC(=O)C2=C(C1)Nc1n[nH]cc1[C@]21CO[C@H](C2CC2)C1 [Compound 913184] |  |  | 100 to 1000 nM | 1000 to 5000 nM | 
CCC1(c2cccc(C(F)(F)F)c2)C2=C(Nc3n[nH]cc31)C(C)(C)N(C)C2=O (stereo not shown) [Compound 913198] | ≤ 100 nM | 100 to 1000 nM |  |  | 
CC[C@@H]1C[C@@]2(CO1)C1=C(CC(C)(C)CC1=O)Nc1n[nH]cc12 [Compound 913213] | 100 to 1000 nM | 1000 to 5000 nM |  |  | 
CC[C@H]1C[C@@]2(CO1)C1=C(CC(C)(C)CC1=O)Nc1n[nH]cc12 [Compound 913214] | 100 to 1000 nM | 1000 to 5000 nM |  |  | 
CC[C@@H]1C[C@]2(CO1)C1=C(CC(C)(C)CC1=O)Nc1n[nH]cc12 [Compound 913215] | 100 to 1000 nM | 1000 to 5000 nM |  |  | 
CC[C@H]1C[C@]2(CO1)C1=C(CC(C)(C)CC1=O)Nc1n[nH]cc12 [Compound 913216] | 100 to 1000 nM | 100 to 1000 nM |  |  | 
CC1(C)CC(=O)C2=C(C1)Nc1n[nH]cc1C21CCCc2ccccc21 (stereo not shown) [Compound 913219] |  |  | ≤ 100 nM | 100 to 1000 nM | 
CC[C@]1(c2cccc(-c3cc(C)nc(C)c3)c2)C2=C(CC(C)(C)CC2=O)Nc2n[nH]cc21 [Compound 913223] |  |  | > 5000 nM | > 5000 nM | 
CCC1(c2cccc(Br)c2)C2=C(CC(C)NC2=O)Nc2n[nH]cc21 (stereo not shown) [Compound 913225] |  |  |  |  | IC50 [1, 11]: 100 to 1000 nM; IC50 [2, 12]: 1000 to 5000 nM
CC1(C)CC(=O)C2=C(C1)Nc1n[nH]cc1C21CCN(S(=O)(=O)c2ccc3c(c2)CCO3)CC1 [Compound 913251] | ≤ 100 nM | ≤ 100 nM |  |  | 

— patent publication US20250313563A1, “GLYCOGEN SYNTHASE KINASE 3 INHIBITORS AND USES THEREOF” (The Broad Institute, Inc., priority 2022, published 2025)
